In DBAASP:
In brackets after ≈: the same amount, converted by molar mass. Several values for one entry are separate records, joined by “and”; a condition that tells them apart may be missing. Equal values may be shown once.

Tests used:
Test in all cases: ≥ marks a high value that may be exact or a test limit, other limits are often not marked, values filed in µg/mL are converted to µM
[1] = tested on: Acinetobacter baumannii ATCC 19606
[2] = tested on: Escherichia coli ATCC 25922
[3] = tested on: Klebsiella pneumoniae ATCC 13883
[4] = tested on: Pseudomonas aeruginosa ATCC 27853
[5] = tested on: Staphylococcus aureus ATCC 29213
[6] = tested on: Pseudomonas aeruginosa ATCC 9027
[7] = tested on: Staphylococcus aureus ATCC 6538
[8] = tested on: Staphylococcus aureus NCTC 8325
[9] = tested on: Candida albicans ATCC 90028
[10] = tested on: Staphylococcus aureus ATCC 25923

Compound | MIC [2] | MIC [8] | also measured
CC[C@H](C)[C@@H]1NC(=O)[C@H](CO)NC(=O)[C@H](C(C)C)NC(=O)[C@H]([C@@H](C)O)NC(=O)[C@H](Cc2c[nH]c3ccccc23)NC(=O)[C@@H](NC(=O)CNC(=O)[C@H](CCCCN)NC(=O)[C@H](CCCCN)NC(=O)[C@H](C)NC(=O)[C@H](C)N)CSSC[C@@H](C(=O)N[C@@H](Cc2ccccc2)C(N)=O)NC(=O)[C@@H]2CCCN2C(=O)[C@H](CCCCN)NC(=O)[C@@H]2CCCN2C(=O)[C@@H]2CCCN2C1=O [AAKKGCWTVSIPPKPCF] | 22.6 µM (≈ 41.4 µg/mL) |  | MIC [1]: 16 µM (≈ 29.3 µg/mL); MIC [3]: 8 µM (≈ 14.6 µg/mL); MIC [4]: 32 µM (≈ 58.6 µg/mL); MIC [5]: 16 µM (≈ 29.3 µg/mL)
CC(C)C[C@H](NC(=O)[C@H](C)NC(=O)[C@H](CCCCN)NC(=O)[C@H](CCCCN)NC(=O)[C@H](CC(C)C)NC(=O)[C@H](C)NC(=O)[C@H](CCCCN)NC(=O)[C@H](CC(C)C)NC(=O)[C@H](C)NC(=O)[C@H](CCCCN)NC(=O)[C@H](CCCCN)NC(=O)[C@H](CC(C)C)NC(=O)[C@H](C)NC(=O)[C@H](CC(C)C)NC(=O)[C@H](C)NC(=O)[C@@H](N)Cc1ccccc1)C(N)=O [FALALKKALKALKKAL] |  |  | MIC [6]: 28.9 µM (≈ 50 µg/mL); MIC [7]: 2.89 µM (≈ 5 µg/mL)
CC[C@H](C)[C@H](NC(=O)[C@H](CCCCN)NC(=O)[C@H](CS)NC(=O)[C@H](Cc1ccccc1)NC(=O)[C@@H](NC(=O)CNC(=O)[C@@H](NC(=O)[C@@H]1CCCN1C(=O)[C@H](Cc1ccccc1)NC(=O)[C@@H](N)Cc1ccccc1)[C@@H](C)CC)C(C)C)C(=O)N[C@@H](Cc1ccccc1)C(=O)N[C@@H](CCCCN)C(=O)N[C@H](C(=O)N[C@@H](CS)C(=O)O)[C@@H](C)O [FFPIGVFCKIFKTC] | 30 µM (≈ 49.5 µg/mL) | ≥ 100 µM | 
CC[C@H](C)[C@@H]1NC(=O)[C@H](C)NC(=O)[C@@H](NC(=O)[C@H](Cc2ccccc2)NC(=O)[C@@H](NC(=O)[C@H](CCCCN)NC(=O)[C@@H]2CCCN2C(=O)[C@H](Cc2ccccc2)NC(=O)[C@@H](NC(=O)[C@H](CCCCN)NC(=O)[C@H](C)NC(=O)[C@H](C)NC(=O)[C@@H](NC(=O)CNC(=O)[C@H](C)NC(=O)[C@@H](NC(=O)[C@@H](NC(=O)[C@@H]2CCCN2C(=O)[C@H](CC(C)C)NC(=O)[C@@H](N)Cc2ccccc2)[C@@H](C)CC)[C@@H](C)CC)C(C)C)C(C)C)[C@@H](C)CC)CSSC[C@@H](C(=O)O)NC(=O)[C@H](CCCCN)NC(=O)[C@H](CCCCN)NC(=O)[C@H](CO)NC1=O [FLPIIAGVAAKVFPKIFCAISKKC] | 14 µM (≈ 35.9 µg/mL) | 7 µM (≈ 17.9 µg/mL) | MIC [9]: 5 µM (≈ 12.8 µg/mL)
CC[C@H](C)[C@H](NC(=O)[C@H](CC(C)C)NC(=O)[C@H](CO)NC(=O)[C@H](C)NC(=O)[C@H](Cc1ccccc1)NC(=O)[C@H](CC(C)C)NC(=O)[C@@H]1CCCN1C(=O)[C@H](CC(C)C)NC(=O)[C@@H](N)Cc1ccccc1)C(=O)NCC(=O)N[C@@H](CCCCN)C(=O)N[C@@H](CC(C)C)C(=O)N[C@@H](CC(C)C)C(N)=O [FLPLFASLIGKLL] |  | ≥ 140 µM | 
CC[C@H](C)[C@H](NC(=O)[C@H](CC(C)C)NC(=O)[C@H](CC(=O)O)NC(=O)[C@H](CO)NC(=O)[C@@H](NC(=O)[C@H](C)NC(=O)[C@H](CCCCN)NC(=O)[C@@H](NC(=O)[C@H](C)NC(=O)[C@H](Cc1cnc[nH]1)NC(=O)[C@@H]1CCCN1C(=O)[C@@H](NC(=O)[C@H](CC(C)C)NC(=O)[C@@H]1CCCN1C(=O)CNC(=O)[C@@H](NC(=O)[C@H](Cc1ccc(O)cc1)NC(=O)[C@H](CCCCN)NC(=O)[C@H](CCSC)NC(=O)[C@H](Cc1ccccc1)NC(=O)CN)[C@@H](C)CC)[C@@H](C)CC)C(C)C)[C@@H](C)CC)C(=O)O [GFMKYIGPLIPHAVKAISDLI] | 25 µM (≈ 57.1 µg/mL) | ≥ 100 µM | MIC [9]: ≥ 200 µM
CSCC[C@H](NC(=O)[C@H](CC(C)C)NC(=O)[C@H](CO)NC(=O)CNC(=O)[C@H](C)NC(=O)[C@@H](NC(=O)[C@H](CC(N)=O)NC(=O)[C@H](CCCCN)NC(=O)[C@H](CC(C)C)NC(=O)[C@@H](NC(=O)[C@H](CC(N)=O)NC(=O)[C@H](CCCCN)NC(=O)CNC(=O)[C@@H](NC(=O)[C@H](CCCCN)NC(=O)[C@H](CCCCN)NC(=O)[C@H](Cc1ccccc1)NC(=O)[C@H](C)NC(=O)[C@H](CO)NC(=O)[C@H](Cc1ccccc1)NC(=O)[C@H](CC(C)C)NC(=O)CN)C(C)C)C(C)C)C(C)C)C(=O)N[C@@H](CC(=O)O)C(=O)N[C@@H](CC(N)=O)C(=O)N[C@@H](CC(C)C)C(=O)N[C@@H](CCCCN)C(=O)N[C@H]1CSSC[C@@H](C(=O)O)NC(=O)[C@H](CCC(=O)O)NC(=O)CNC(=O)[C@H](CO)NC(=O)[C@H](C(C)C)NC(=O)[C@H](CCCCN)NC1=O [GLFSAFKKVGKNVLKNVAGSLMDNLKCKVSGEC] | 3 µM (≈ 10.5 µg/mL) | ≥ 50 µM | 
CC[C@H](C)[C@H](NC(=O)CNC(=O)[C@H](CCC(N)=O)NC(=O)[C@H](Cc1ccccc1)NC(=O)[C@@H](NC(=O)[C@H](CCCCN)NC(=O)[C@H](CCCCN)NC(=O)[C@H](CC(C)C)NC(=O)[C@H](C)NC(=O)[C@H](CCCCN)NC(=O)[C@H](CC(C)C)NC(=O)CN)C(C)C)C(=O)N[C@@H](Cc1cnc[nH]1)C(=O)N[C@@H](CCC(=O)O)C(=O)N[C@@H](C)C(=O)N[C@H](C(=O)N[C@@H](CCCCN)C(=O)N[C@@H](CC(C)C)C(=O)N[C@H](C(=O)N[C@@H](CC(N)=O)C(=O)N[C@@H](CC(N)=O)C(=O)N[C@@H](Cc1cnc[nH]1)C(=O)N[C@H](C(=O)N[C@@H](CCC(N)=O)C(=O)O)C(C)C)[C@@H](C)CC)[C@@H](C)CC [GLKALKKVFQGIHEAIKLINNHVQ] | 10 µM (≈ 27 µg/mL) | ≥ 80 µM | 
CC[C@H](C)[C@H](NC(=O)CNC(=O)[C@H](CCC(N)=O)NC(=O)[C@H](Cc1ccccc1)NC(=O)[C@@H](NC(=O)[C@H](CCCCN)NC(=O)[C@H](CCCCN)NC(=O)[C@H](CC(C)C)NC(=O)[C@H](C)NC(=O)[C@H](CC(N)=O)NC(=O)[C@H](CC(C)C)NC(=O)CN)C(C)C)C(=O)N[C@@H](Cc1cnc[nH]1)C(=O)N[C@@H](CCC(=O)O)C(=O)N[C@@H](C)C(=O)N[C@@H](Cc1ccccc1)C(=O)N[C@@H](CCCCN)C(=O)N[C@@H](CC(C)C)C(=O)N[C@H](C(=O)N[C@@H](CC(N)=O)C(=O)N[C@@H](CC(N)=O)C(=O)N[C@@H](Cc1cnc[nH]1)C(=O)N[C@H](C(=O)N[C@@H](CCC(N)=O)C(=O)O)C(C)C)[C@@H](C)CC [GLNALKKVFQGIHEAFKLINNHVQ] | 20 µM (≈ 54.4 µg/mL) | ≥ 160 µM | 
CC[C@H](C)[C@H](NC(=O)CNC(=O)[C@H](CCC(N)=O)NC(=O)[C@H](Cc1ccccc1)NC(=O)[C@@H](NC(=O)[C@H](CCCCN)NC(=O)[C@H](CCCCN)NC(=O)[C@H](CC(C)C)NC(=O)[C@H](C)NC(=O)[C@H](CC(N)=O)NC(=O)[C@H](CC(C)C)NC(=O)CN)C(C)C)C(=O)N[C@@H](Cc1cnc[nH]1)C(=O)N[C@@H](CCC(=O)O)C(=O)N[C@@H](C)C(=O)N[C@H](C(=O)N[C@@H](CCCCN)C(=O)N[C@@H](CC(C)C)C(=O)N[C@@H](Cc1ccccc1)C(=O)N[C@@H](CC(N)=O)C(=O)N[C@@H](CC(N)=O)C(=O)N[C@@H](Cc1cnc[nH]1)C(=O)N[C@H](C(=O)N[C@@H](CCC(N)=O)C(=O)O)C(C)C)[C@@H](C)CC [GLNALKKVFQGIHEAIKLFNNHVQ] | 10 µM (≈ 27.2 µg/mL) | ≥ 160 µM | 
CC(C)C[C@H](NC(=O)CNC(=O)[C@@H](NC(=O)[C@@H]1CCCN1C(=O)[C@H](CC(C)C)NC(=O)CNC(=O)[C@H](CC(N)=O)NC(=O)[C@H](CC(N)=O)NC(=O)[C@H](Cc1ccc(O)cc1)NC(=O)[C@@H](NC(=O)[C@H](CCCN=C(N)N)NC(=O)[C@H](CS)NC(=O)[C@H](CCCN=C(N)N)NC(=O)[C@H](Cc1cnc[nH]1)NC(=O)[C@@H](N)CCCCN)C(C)C)[C@@H](C)O)C(=O)N[C@@H](Cc1ccc(O)cc1)C(=O)N[C@@H](CCCN=C(N)N)C(=O)N[C@@H](Cc1c[nH]c2ccccc12)C(=O)N[C@@H](CS)C(N)=O [KHRCRVYNNGLPTGLYRWC] |  |  | MIC [7]: 4.8 µM (≈ 11.2 µg/mL)
CC(C)C[C@H](NC(=O)[C@H](CCCN=C(N)N)NC(=O)[C@H](CCCN=C(N)N)NC(=O)[C@H](C)NC(=O)[C@H](Cc1c[nH]c2ccccc12)NC(=O)CNC(=O)[C@H](CCCN=C(N)N)NC(=O)[C@@H](N)CCCN=C(N)N)C(=O)N[C@@H](C)C(=O)N[C@@H](Cc1ccccc1)C(=O)N[C@@H](C)C(=O)N[C@@H](Cc1ccccc1)C(=O)NCC(=O)N[C@@H](CCCN=C(N)N)C(=O)N[C@@H](CCCN=C(N)N)C(N)=O [RRGWARRLAFAFGRR] | 12.5 µM and 30 µM |  | MIC [1]: 13.8 µM and 22 µM; MIC [3]: 30 µM (≈ 56.3 µg/mL); MIC [10]: > 30 µM
CC(C)C[C@H](NC(=O)[C@H](C)NC(=O)[C@H](CCCCN)NC(=O)[C@H](CCCCN)NC(=O)[C@H](CC(C)C)NC(=O)[C@H](C)NC(=O)[C@H](CCCCN)NC(=O)[C@H](CCCCN)NC(=O)[C@H](CC(C)C)NC(=O)[C@H](CCCCN)NC(=O)[C@H](CCCCN)NC(=O)[C@H](CC(C)C)NC(=O)[C@H](C)NC(=O)[C@H](CCCCN)NC(=O)[C@H](CCCCN)NC(=O)[C@H](CC(C)C)NC(=O)[C@H](C)NC(=O)[C@H](CCCCN)NC(=O)[C@H](CC(C)C)NC(=O)[C@H](C)NC(=O)[C@H](CC(C)C)NC(=O)[C@H](C)NC(=O)[C@@H](N)C(C)C)C(N)=O [VALALKALKKALKKLKKALKKAL] |  |  | MIC [6]: > 80.3 µM; MIC [7]: > 80.3 µM
